From US4992369A, “Fermentation process for glycopeptide antibiotic” (Pfizer Inc., priority 1986, dated 1991)

Test system: rumen fluid
Experiment: In vitro rumen technique: propionic acid production in rumen fluid
Assay type: cell-based
Conditions: 10 micrograms per milliliter; rumen fluid from fistulated cow, 39° C., about 16 hours
Experimental: The value of animal feeds has generally been determined directly by feeding the animal. British Patent Specification No. 1,197,826 details an in vitro rumen technique whereby the changes occurring in feeds brought about by microorganisms are measured more readily and with great accuracy in the evaluation of animal feeds. This technique involves the use of an apparatus in which the digestive processes of the animals are conducted and studied in vitro. The animal feeds, rumen inoculum and various growth promotants are introduced into and withdrawn from a laboratory unit under carefully controlled conditions and the changes taken place are studied critically and progressively during the consumption of the feed by the microorganisms. […] The change in propionic acid content is expressed as percent of the propionic acid content found in the control rumen fluid. Long term in vivo feeding studies are used to show a reliable correlation between propionic acid increase in the rumen fluid and improved animal performance. […]
After incubation, 5 ml. of the sample is mixed with 1 ml. of 25% metaphosphoric acid. […] Samples are then analyzed by gas-liquid chromatography by the method of D. W. Kellog, J. Dairy Science, 52, 1690, 1969. Peak heights for acetic, propionic and butyric acids are determined for samples from untreated and treated incubation flasks.

SMILES: CC[C@@H](C(=O)[C@@H](C)[C@@H](O)[C@H](C)[C@@H]1O[C@@H]([C@@H](CC)C(=O)O)CC[C@@H]1C)[C@H]1O[C@]2(C=C[C@@H](O)[C@]3(CC[C@@](C)([C@H]4CC[C@](O)(CC)[C@H](C)O4)O3)O2)[C@H](C)C[C@@H]1C [salinomycin]
- increase in the production of propionic acid over control: ~46%
